Test results: US12459951B2, “Compounds that interact with RAS superfamily proteins for treatment of cancers, inflammatory diseases, rasopathies, and fibrotic disease” (SHY Therapeutics, LLC, priority 2022, dated 2025)
Counter-ions that a name gives are not always drawn.

Experiments:
Erk1/2 phosphorylation = experiment: Erk1/2 Phosphorylation Assay (western blot), Panc-1; assay type: cell-based, human; details: at 10 μM, * = activation
In short: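 Phospho-Erk1/2 (Thr202/Tyr204) was detected by western blot in lysates of Panc-1 cells (KRas G12D). These had 6 h, 37° C exposure to 10 μM compound or a dilution series for IC50, in 0.3% DMSO. Cells were either starved overnight in 0.5% FBS with a 15-min 1.5 ng/ml EGF pulse, or kept unstimulated in 10% FBS.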

[1] = test system: MiaPaca-2 (expressing KRAS G12C mutant); experiment: Proliferation Assay (Cell Viability Assay); assay type: cell-based; details: Homo sapiens, MIA PaCa-2; read-out: Proliferation in MiaPaca-2: IC50
In short: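 After 2–4 days' exposure at 37 °C, 5% CO2 to a single 10 μM final concentration or a dilution series (IC50), percent proliferation inhibition was derived from CellTiter 96 Aqueous One viability readings. The medium contained 0.3% DMSO and 10% FBS. KRAS G12C MiaPaca-2 cells were plated at 2000–5000/well the day before.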

SMILES | IC50 [1] [nM] | % inh of Erk1/2 phosphorylation in Panc-1 (Erk1/2 phosphorylation)
COc1ncccc1Nc1nc(-c2nccn2C)nn2cc(-c3ccn(C(C)C)n3)c(C)c12 [Compound 85, 6-(1-Isopropyl-1H-pyrazol-3-yl)-N-(2-methoxypyridin-3-yl)-5-methyl-2-(1-methyl-1H-imidazol-2-yl)pyrrolo[2,1-f][1,2,4]triazin-4-amine] | > 1000 | C (50-84% inhibition)
COCC1CCN(c2nc(-c3nccn3C)nn3cc(-c4ccn(C(C)C)n4)c(-c4ccccc4)c23)C1.Cl (racemic) [Compound 19, rac 6-(1-Isopropyl-1H-pyrazol-3-yl)-4-(3-(methoxymethyl)pyrrolidin-1-yl)-2-(1-methyl-1H-imidazol-2-yl)-5-phenylpyrrolo[2,1-f][1,2,4]triazine hydrochloride salt] | > 1000 | 0 (0% inhibition)
COCc1noc(Nc2nc(-c3nccn3C)nn3cc(-c4ccn(C(C)C)n4)c(C)c23)n1 [Compound 82, N-(6-(1-Isopropyl-1H-pyrazol-3-yl)-5-methyl-2-(1-methyl-1H-imidazol-2-yl)pyrrolo[2,1-f][1,2,4]triazin-4-yl)-3-(methoxymethyl)-1,2,4-oxadiazol-5-amine] | < 150 | A* (1-25% activation)
COc1cc(Nc2nc(-c3nccn3C)nn3cc(-c4ccn(C(C)C)n4)c(C)c23)ccn1 [Compound 87, 6-(1-Isopropyl-1H-pyrazol-3-yl)-N-(2-methoxypyridin-4-yl)-5-methyl-2-(1-methyl-1H-imidazol-2-yl)pyrrolo[2,1-f][1,2,4]triazin-4-amine] | > 1000 | C* (46-84% activation)
CO[C@H]1CC[C@@H](Nc2nc(-c3nccn3C)nn3cc(-c4ccn(C(C)C)n4)c(-c4ccccc4)c23)C1 (racemic) [Compound 18, rac 6-(1-Isopropyl-1H-pyrazol-3-yl)-N-((1R,3S)-3-methoxycyclopentyl)-2-(1-methyl-1H-imidazol-2-yl)-5-phenylpyrrolo[2,1-f][1,2,4]triazin-4-amine hydrochloride] | > 1000 | C (50-84% inhibition)
COC[C@@H]1CC[C@@H]1CNc1nc(-c2nccn2C)nn2cc(-c3ccn(C(C)C)n3)c(-c3ccccc3)c12 (racemic) [Compound 20, rac 6-(1-Isopropyl-1H-pyrazol-3-yl)-N-(((1S,2R)-2-(methoxymethyl)cyclobutyl)methyl)-2-(1-methyl-1H-imidazol-2-yl)-5-phenylpyrrolo[2,1-f][1,2,4]triazin-4-amine] | > 1000 | D (85-100% inhibition)
COc1cccc(-c2cn3nc(-c4nccn4C)nc(N[C@@H]4CC[C@H](OC)C4)c3c2-c2ccccc2)c1C (racemic) [Compound 271, rac 6-(3-Methoxy-2-methylphenyl)-N-((1R,3S)-3-methoxycyclopentyl)-2-(1-methyl-1H-imidazol-2-yl)-5-phenylpyrrolo[2,1-f][1,2,4]triazin-4-amine] | 150 to 500 | D (85-100% inhibition)
COc1cccnc1Nc1nc(-c2nccn2C)nn2cc(-c3ccn(C(C)C)n3)c(C)c12 [Compound 89, 6-(1-Isopropyl-1H-pyrazol-3-yl)-N-(3-methoxypyridin-2-yl)-5-methyl-2-(1-methyl-1H-imidazol-2-yl)pyrrolo[2,1-f][1,2,4]triazin-4-amine] | < 150 | D* (85-100% activation)
Cc1c(-c2ccn(C(C)C)n2)cn2nc(-c3nccn3C)nc(Nc3nnc(C4CC4)[nH]3)c12 [Compound 81, N-(5-Cyclopropyl-4H-1,2,4-triazol-3-yl)-6-(1-isopropyl-1H-pyrazol-3-yl)-5-methyl-2-(1-methyl-1H-imidazol-2-yl)pyrrolo[2,1-f][1,2,4]triazin-4-amine] | 150 to 500 | 0 (0% inhibition)
COc1cc(Nc2nc(-c3nccn3C)nn3cc(-c4ccn(C(C)C)n4)c(-c4ccccc4)c23)ncn1 [Compound 22, 6-(1-Isopropyl-1H-pyrazol-3-yl)-N-(6-methoxypyrimidin-4-yl)-2-(1-methyl-1H-imidazol-2-yl)-5-phenylpyrrolo[2,1-f][1,2,4]triazin-4-amine] | 150 to 500 | 0 (0% inhibition)
COc1cccc(-c2cn3nc(-c4nccn4C)nc(N[C@@H]4CC[C@@H](OC)C4)c3c2-c2ccccc2)c1C (racemic) [Compound 270, rac 6-(3-Methoxy-2-methylphenyl)-N-((1R,3R)-3-methoxycyclopentyl)-2-(1-methyl-1H-imidazol-2-yl)-5-phenylpyrrolo[2,1-f][1,2,4]triazin-4-amine] | 150 to 500 | D (85-100% inhibition)
COc1cccc(-c2cn3nc(-c4nccn4C)nc(N[C@@H]4CC[C@@H](OC)C4)c3c2-c2ccccc2)c1Cl.Cl (racemic) [Compound 34, rac 6-(2-Chloro-3-methoxyphenyl)-N-((1R,3R)-3-methoxycyclopentyl)-2-(1-methyl-1H-imidazol-2-yl)-5-phenylpyrrolo[2,1-f][1,2,4]triazin-4-amine hydrochloride] | 510 to 1000 | D (85-100% inhibition)

Continued, in another order:

IC50 [1] [nM] | SMILES | % inh of Erk1/2 phosphorylation in Panc-1 (Erk1/2 phosphorylation)
> 1000 | COC1CCCN(c2nc(-c3nccn3C)nn3cc(-c4ccn(C(C)C)n4)c(C)c23)C1 (racemic) [Compound 4, rac 6-(1-Isopropyl-1H-pyrazol-3-yl)-5-methyl-2-(1-methyl-1H-imidazol-2-yl)-4-(3-(oxo-γ6-methyl)piperidin-1-yl)pyrrolo[2,1-f][1,2,4]triazine] | D (85-100% inhibition)
150 to 500 | COc1nccc(Nc2nc(-c3nccn3C)nn3cc(-c4ccn(C(C)C)n4)c(C)c23)n1 [Compound 86, 6-(1-Isopropyl-1H-pyrazol-3-yl)-N-(2-methoxypyrimidin-4-yl)-5-methyl-2-(1-methyl-1H-imidazol-2-yl)pyrrolo[2,1-f][1,2,4]triazin-4-amine] | D* (85-100% activation)
> 1000 | Cc1ccn2nc(-c3nccn3C)nc(N)c12.O=C(O)C(F)(F)F [Compound 37, 5-Methyl-2-(1-methyl-1H-imidazol-2-yl)pyrrolo[2,1-f][1,2,4]triazin-4-amine trifluoroacetic acid salt] | 0 (0% inhibition)
> 1000 | Cn1ccnc1-c1nc(O)c2c(-c3ccccc3)ccn2n1 [Compound 39, 2-(1-Methyl-1H-imidazol-2-yl)-5-phenylpyrrolo[2,1-f][1,2,4]triazin-4-ol] | 0 (0% inhibition)
150 to 500 | Cc1c(-c2ccn(C(C)C)n2)cn2nc(-c3nccn3C)nc(Nc3cn(C(C)C)nn3)c12 [Compound 78, N-(1-Isopropyl-1H-1,2,3-triazol-4-yl)-6-(1-isopropyl-1H-pyrazol-3-yl)-5-methyl-2-(1-methyl-1H-imidazol-2-yl)pyrrolo[2,1-f][1,2,4]triazin-4-amine] | D* (85-100% activation)
> 1000 | CO[C@H]1CC[C@@H](Nc2nc(-c3nccn3C)nn3cc(-c4ccn(C(C)C)n4)c(C)c23)C1 (racemic) [Compound 1, rac 6-(1-Isopropyl-1H-pyrazol-3-yl)-N-((1R,3S)-3-methoxycyclopentyl)-5-methyl-2-(1-methyl-1H-imidazol-2-yl)pyrrolo[2,1-f][1,2,4]triazin-4-amine] | 0 (0% inhibition)
> 1000 | COc1ncc(Nc2nc(-c3nccn3C)nn3cc(-c4ccn(C(C)C)n4)c(C)c23)cn1 [Compound 80, 6-(1-Isopropyl-1H-pyrazol-3-yl)-N-(2-methoxypyrimidin-5-yl)-5-methyl-2-(1-methyl-1H-imidazol-2-yl)pyrrolo[2,1-f][1,2,4]triazin-4-amine] | D* (85-100% activation)
> 1000 | COCCO[C@H]1C[C@H](Nc2nc(-c3nccn3C)nn3cc(-c4ccn(C(C)C)n4)c(C)c23)C1 [Compound 92, 6-(1-Isopropyl-1H-pyrazol-3-yl)-N-((1r,3r)-3-(2-methoxyethoxy)cyclobutyl)-5-methyl-2-(1-methyl-1H-imidazol-2-yl)pyrrolo[2,1-f][1,2,4]triazin-4-amine] | A* (1-25% activation)
150 to 500 | COc1cnc(Nc2nc(-c3nccn3C)nn3cc(-c4ccn(C(C)C)n4)c(C)c23)cn1 [Compound 83, 6-(1-Isopropyl-1H-pyrazol-3-yl)-N-(5-methoxypyrazin-2-yl)-5-methyl-2-(1-methyl-1H-imidazol-2-yl)pyrrolo[2,1-f][1,2,4]triazin-4-amine] | D* (85-100% activation)
> 1000 | Cc1c(-c2ccn(C(C)C)n2)cn2nc(-c3nccn3C)nc(Nc3cnn(C(C)C)n3)c12 [Compound 77, 6-(1-Isopropyl-1H-pyrazol-3-yl)-N-(2-isopropyl-2H-1,2,3-triazol-4-yl)-5-methyl-2-(1-methyl-1H-imidazol-2-yl)pyrrolo[2,1-f][1,2,4]triazin-4-amine] | D* (85-100% activation)
> 1000 | Cc1c(-c2ccn(C(C)C)n2)cn2nc(-c3nccn3C)nc(Nc3noc(C4CC4)n3)c12 [Compound 75, 5-Cyclopropyl-N-(6-(1-isopropyl-1H-pyrazol-3-yl)-5-methyl-2-(1-methyl-1H-imidazol-2-yl)pyrrolo[2,1-f][1,2,4]triazin-4-yl)-1,2,4-oxadiazol-3-amine] | B (26-49% inhibition)
